Assay results taken from BindingDB's records for doi:10.7270/Q27P8WT7 (Srmlsc, 2008).

Conditions: inactive by the depositor's call

Structure (SMILES)	EC50
CC(C)=CC(=O)Nc1ccc(Br)cc1 [N-(4-bromophenyl)-3-methylbut-2-enamide]	46.4 µM
COc1ccc(C2=NOC(CN3C(=O)c4ccccc4S3(=O)=O)C2)cc1 (stereo not drawn)	55 µM
COc1nc(-c2ccccc2)nnc1-c1ccccc1 [3,6-diphenyl-1,2,4-triazin-5-yl methyl ether]	38.9 µM
COc1ccc(C2=Nc3ccccc3OC2)cc1 [3-(4-methoxyphenyl)-2H-1,4-benzoxazine]	45.6 µM
Cc1ccn2c(c1)nc(=S)n2C(=O)c1ccco1 [2-furanyl-(7-methyl-2-sulfanylidene-[1,2,4]triazolo[1,5-a]pyridin-3-yl)methanone]	56.4 µM
NC(=O)Cc1ccc2sc(-c3ccccc3)nc2c1 [2-(2-phenyl-1,3-benzothiazol-5-yl)acetamide]	36.5 µM
Cc1cccc(-c2cc(N)n(-c3ccccc3)n2)c1 [5-(3-methylphenyl)-2-phenyl-3-pyrazolamine]	80.1 µM
S=C(c1ccc(-c2cccc(Cl)c2)o1)N1CCOCC1 [MLS000107692]	89.6 µM
CCn1cnc2sc(-c3ccccc3)cc2c1=O [3-ethyl-6-phenyl-4-thieno[2,3-d]pyrimidinone]	35.2 µM
Oc1ccc(CN2CCCCC2)c2cccnc12 [5-(1-piperidinylmethyl)-8-quinolinol]	53.8 µM
O=c1oc(-c2ccccc2)nc2sc3c(c12)CCCC3 [2-phenyl-5,6,7,8-tetrahydro-4H-[1]benzothieno[2,3-d][1,3]oxazin-4-one]	69.5 µM
COc1ccc(C(=O)Oc2c(CN3CCOCC3)cc(Cl)c3cccnc23)cc1 [4-methoxybenzoic acid [5-chloro-7-(4-morpholinylmethyl)-8-quinolinyl] ester]	46.5 µM
O=C(Nc1ccccc1)c1ccc2c(c1)OCCO2 [2,3-Dihydro-benzo[1,4]dioxine-6-carboxylic acid phenylamide]	41.7 µM
COc1ccc(-c2cn3cc(C(F)(F)F)cc(Cl)c3n2)cc1 [4-[8-chloro-6-(trifluoromethyl)imidazo[1,2-a]pyridin-2-yl]phenyl methyl ether]	64.2 µM
COc1ccc(OC(=O)c2cnn(-c3ccccc3)c2C)cc1 [(4-methoxyphenyl) 5-methyl-1-phenyl-pyrazole-4-carboxylate]	49.5 µM
CCCNC(=O)c1noc2c1CCc1cc(OC)ccc1-2 [7-methoxy-N-propyl-4,5-dihydrobenz[g]indoxazene-3-carboxamide]	39.9 µM
Nc1nc(-c2ccc3ccccc3c2)cs1 [4-(2-naphthalenyl)-2-thiazolamine]	35.5 µM
Cn1nnc(-c2ccc(OCc3ccccc3F)cc2)n1 [5-[4-(2-fluorobenzyl)oxyphenyl]-2-methyl-tetrazole]	69.3 µM
Nc1c(-c2ccccc2)cnn1-c1ccc(C(=O)O)cc1 [4-(5-amino-4-phenyl-1-pyrazolyl)benzoic acid]	46.2 µM

Structure (SMILES)	EC50
Cc1cccc(NC(=O)c2ccc3ccccc3n2)c1C [MLS000569762]	84.4 µM
c1ccc(CSc2ccc(-c3ccccn3)nn2)cc1 [3-(benzylthio)-6-(2-pyridyl)pyridazine]	45.1 µM
CN(C)/C=N/c1ccc2nn(-c3ccccc3)nc2c1 [MLS000105162]	42.9 µM
Cc1ccc2sc(NC(=O)CSc3nc(C)cc(C)c3C#N)nc2c1 [2-(3-Cyano-4,6-dimethyl-pyridin-2-ylsulfanyl)-N-(5-methyl-benzothiazol-2-yl)-acetamide]	31.8 µM
Nc1ccccc1C(=O)/C=C/c1ccc2c(c1)OCO2	55.6 µM
CCOc1ccc(C(=O)Nc2cccc(C(=O)O)c2)cc1Cl [3-[(3-chloranyl-4-ethoxy-phenyl)carbonylamino]benzoic acid]	47.8 µM
Brc1ccccc1OCCCn1cnc2ccccc21 [1-[3-(2-bromanylphenoxy)propyl]benzimidazole]	62.3 µM
COc1ccc2c(c1OC)C(=O)N(c1cccc(C(F)(F)F)c1)C2 [6,7-dimethoxy-2-[3-(trifluoromethyl)phenyl]-3H-isoindol-1-one]	69.9 µM
COc1ccc2c3c(cccc13)C(=O)N(O)C2=O	41.6 µM
NC(=NOC(=O)COc1ccccc1Cl)c1ccccn1 [2-(2-chlorophenoxy)acetic acid [(Z)-[amino(2-pyridinyl)methylidene]amino] ester]	39.1 µM
Cc1ccc(NC(=O)c2noc3c2CCCCC3)cc1 [MLS000087401]	33.6 µM
O=C(Nc1ccc2c(c1)CCC2)c1cccc(F)c1 [3-fluoro-N-indan-5-yl-benzamide]	50.2 µM
CCOC(=O)c1nn(-c2ccc(C)cc2)cc1C(=O)c1ccccc1 [4-benzoyl-1-(4-methylphenyl)-3-pyrazolecarboxylic acid ethyl ester]	36.7 µM
CCCCNC(=S)Nc1ccc(-c2nc3ccc(C)cc3s2)cc1 [1-butyl-3-[4-(6-methyl-1,3-benzothiazol-2-yl)phenyl]thiourea]	39.6 µM
CCCCSc1ncc(C(=O)OCC)c(N)n1 [4-Amino-2-butylsulfanyl-pyrimidine-5-carboxylic acid ethyl ester]	46.2 µM
Fc1ccc(NC(=S)Nc2nccs2)cc1 [1-(4-fluorophenyl)-3-(1,3-thiazol-2-yl)thiourea]	35.6 µM
Cc1ccc(OCc2nnc(-c3ccccn3)[nH]2)cc1	78.8 µM
Cc1ccnc(NC(=O)c2cc3ccccc3oc2=O)c1 [2-keto-N-(4-methyl-2-pyridyl)chromene-3-carboxamide]	47.2 µM
O=C1CCCc2nc(N3CCc4ccccc43)ncc21 [2-(2,3-dihydroindol-1-yl)-7,8-dihydro-6H-quinazolin-5-one]	84.7 µM
